Results from patent US9902728B2, “Pyrrolo and pyrazolopyrimidines as ubiquitin-specific protease 7 inhibitors” (Forma Therapeutics, Inc., priority 2014, dated 2018).

Each compound was assayed against T1, USP7 (Homo sapiens, UniProt Q93009) (assay: USP7 Assay A (Ubitquin-Rhodamine 110 Assay)). Settings: USP7 activity in USP7 assay A and B (table does not say which assay per compound); read-out: USP7_IC50.
T1 construct: USP7, construct USP7 (208-1102) 6*His, Viva Biotech; 6xHis (C); purchased Viva Biotech
T1 sequence (Q93009 208-1102): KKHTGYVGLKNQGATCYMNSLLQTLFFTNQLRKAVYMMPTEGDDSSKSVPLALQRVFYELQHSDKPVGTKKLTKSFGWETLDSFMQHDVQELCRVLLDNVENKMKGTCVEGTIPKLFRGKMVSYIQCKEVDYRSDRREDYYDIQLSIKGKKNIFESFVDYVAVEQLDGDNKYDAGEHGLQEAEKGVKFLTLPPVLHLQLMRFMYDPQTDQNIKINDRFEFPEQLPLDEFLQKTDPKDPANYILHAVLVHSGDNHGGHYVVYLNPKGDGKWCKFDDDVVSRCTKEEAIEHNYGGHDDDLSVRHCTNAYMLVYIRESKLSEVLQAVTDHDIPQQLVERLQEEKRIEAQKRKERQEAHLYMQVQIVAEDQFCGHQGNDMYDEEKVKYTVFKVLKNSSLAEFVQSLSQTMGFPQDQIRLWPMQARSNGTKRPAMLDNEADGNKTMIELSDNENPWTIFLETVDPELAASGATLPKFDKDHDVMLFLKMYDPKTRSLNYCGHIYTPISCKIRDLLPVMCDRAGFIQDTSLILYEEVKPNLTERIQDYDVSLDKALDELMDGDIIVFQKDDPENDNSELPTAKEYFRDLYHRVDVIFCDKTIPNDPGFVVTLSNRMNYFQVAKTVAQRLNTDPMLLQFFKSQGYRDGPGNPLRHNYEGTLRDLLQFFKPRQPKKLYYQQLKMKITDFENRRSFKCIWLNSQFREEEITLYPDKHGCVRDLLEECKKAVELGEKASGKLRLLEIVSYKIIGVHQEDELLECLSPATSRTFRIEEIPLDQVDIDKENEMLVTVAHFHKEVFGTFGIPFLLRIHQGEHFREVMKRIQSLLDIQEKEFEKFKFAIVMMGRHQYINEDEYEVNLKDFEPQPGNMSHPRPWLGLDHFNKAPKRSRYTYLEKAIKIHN
Format: biochemical
How it was run: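 Ub-Rh110 cleavage in 20 mM Tris-HCl pH 8.0 with 1 mM GSH, 0.03% BGG, 0.01% Triton X-100; compound preincubated with enzyme 30 min before substrate.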

Question: With `Cc1cnn(-c2ccc(-n3ncc4c(=O)n(CC5(O)CCN(C(=O)c6ccc(F)cc6)CC5)cnc43)cc2)c1` [Compound I-1623] as the compound, how does the IC50 read?
Answer: 1000 to 10000 nM

Question: `CC1(C(=O)N2CCC(O)(Cn3cnc4c(cnn4-c4ccc(-n5cccn5)cc4)c3=O)CC2)CC1` [Compound I-781] was tested. Which IC50 did it give?
Answer: 200 to 1000 nM

Question: For `O=C(C1CCC(Oc2cccc(F)n2)CC1)N1CCC(O)(Cn2cnc3c(cnn3-c3ccc(F)cc3)c2=O)CC1` (stereo not drawn) [Compound I-740], which IC50 is on record?
Answer: 200 to 1000 nM

Question: How did the IC50 turn out when `Cn1ncc2ccc(-c3ccc(-n4ncc5c(=O)n(CC6(O)CCN(C(=O)C7CC7)CC6)cnc54)cc3)cc21` [Compound I-1764] was run?
Answer: 1000 to 10000 nM

Question: For `C[C@]1(O)CCN(c2ccc(-n3ncc4c(=O)n(CC5(O)CCN(C(=O)C[C@@H](C(F)F)n6cccn6)CC5)cnc43)cc2)C1` [Compound I-835], which IC50 is on record?
Answer: < 200 nM

Question: With `Nc1cc(Cl)ccc1C(=O)N1CCC(O)(Cn2cnc3c(cnn3-c3ccc(F)cc3)c2=O)CC1` [Compound I-554] as the compound, how does the IC50 read?
Answer: 1000 to 10000 nM

Question: Which IC50 does the source give for `O=C(c1cccn1Cc1ccccc1F)N1CCC(O)(Cn2cnc3c(cnn3-c3ccc(F)cc3)c2=O)CC1` [Compound I-561] here?
Answer: 200 to 1000 nM

Question: For `Cc1nnc(-c2ccc(-n3ncc4c(=O)n(CC5(O)CCN(C(=O)c6ccc(F)cc6)CC5)cnc43)cc2)o1` [Compound I-712], which IC50 is on record?
Answer: 1000 to 10000 nM

Question: With `O=C(N1CCC(O)(Cn2cnc3c(cnn3-c3ccc(F)cc3)c2=O)CC1)N1CCc2cn[nH]c2C1` [Compound I-761] as the compound, how does the IC50 read?
Answer: < 200 nM

Question: Which IC50 does the source give for `O=C(C1CCC(NC2CC2)CC1)N1CCC(O)(Cn2cnc3c(cnn3-c3ccc(F)cc3)c2=O)CC1` (stereo not drawn) [Compound I-1072] here?
Answer: 1000 to 10000 nM

Question: With `O=C(c1ccc(F)cc1)N1CCC(O)(Cn2cnc3c(cnn3-c3ccc(N4CCn5ncnc5C4)cc3)c2=O)CC1` [Compound I-1178] as the compound, how does the IC50 read?
Answer: 1000 to 10000 nM

Question: Which IC50 does the source give for `O=C(C1CCC(Oc2ccccn2)CC1)N1CCC(O)(Cn2cnc3c(cnn3-c3ccc(F)cc3)c2=O)CC1` (stereo not drawn) [Compound I-546] here?
Answer: 200 to 1000 nM

Same assay, conditions: USP7 assay A and B (table does not say which assay per compound); read-out: USP7_IC50

Question: For `O=C(c1ccc(OC(F)F)cc1)N1CCC(O)(Cn2cnc3c(cnn3-c3ccc(F)cc3)c2=O)CC1` [Compound I-306], which IC50 is on record?
Answer: 1000 to 10000 nM

Question: Which IC50 does the source give for `CC(CC(=O)N1CCC(O)(Cn2cnc3c(cnn3-c3ccc(-c4ccccc4)cc3)c2=O)CC1)n1cccn1` (stereo not drawn) [Compound I-648] here?
Answer: 1000 to 10000 nM

Question: `CN(C)C(=O)N1CCC(O)(Cn2cnc3c(cnn3-c3ccc(OCC4CC4)cc3)c2=O)CC1` [Compound I-1289] was tested. Which IC50 did it give?
Answer: 1000 to 10000 nM

Question: `O=C(c1ccccc1)N1CCC(O)(Cn2cnc3c(cnn3-c3ccc(F)cc3)c2=O)CC1` [Compound I-266] was tested. Which IC50 did it give?
Answer: 1000 to 10000 nM

Question: `O=C(C1CC1)N1CCC(O)(Cn2cnc3c(cnn3-c3ccc(-c4ccccn4)cc3)c2=O)CC1` [Compound I-1214] was tested. Which IC50 did it give?
Answer: 1000 to 10000 nM

Question: For `O=C(Nc1cccnc1)N1CCC(O)(Cn2cnc3c(cnn3-c3ccc(F)cc3)c2=O)CC1` [Compound I-1708], which IC50 is on record?
Answer: 1000 to 10000 nM

Question: With `O=C(c1ccccc1)N1CC[C@](O)(Cn2cnc3c(cnn3-c3ccccc3)c2=O)[C@H](F)C1` [Compound I-469] as the compound, how does the IC50 read?
Answer: 1000 to 10000 nM

Question: With `C=CC(=O)N1CC[C@]1(C)C(=O)N1CCC(O)(Cn2cnc3c(cnn3-c3ccc(F)cc3)c2=O)CC1` [Compound I-580] as the compound, how does the IC50 read?
Answer: 200 to 1000 nM

Question: How did the IC50 turn out when `O=C(C1CC1)N1CCC(O)(Cn2cnc3c(cnn3-c3ccc(Oc4ccccc4)cc3)c2=O)CC1` [Compound I-296] was run?
Answer: 1000 to 10000 nM

Question: For `COc1cccc(-n2ncc3c(=O)n(CC4(O)CCN(C(=O)c5ccc(F)cc5)CC4)cnc32)c1` [Compound I-621], which IC50 is on record?
Answer: 1000 to 10000 nM

Question: How did the IC50 turn out when `CN1CCN(c2ccc(-n3ncc4c(=O)n(CC5(O)CCN(C(=O)c6ccccc6)CC5)cnc43)cc2F)CC1` [Compound I-970] was run?
Answer: 1000 to 10000 nM

Question: Which IC50 does the source give for `CN(C)C(=O)c1ccc(-c2cccc(-n3ncc4c(=O)n(CC5(O)CCN(C(=O)C6CC6)CC5)cnc43)c2)cc1` [Compound I-350] here?
Answer: 1000 to 10000 nM

Question: With `O=C(C[C@@H](c1ccccc1)C(F)(F)F)N1CCC(O)(Cn2cnc3c(cnn3-c3ccccc3)c2=O)CC1` [Compound I-142] as the compound, how does the IC50 read?
Answer: < 200 nM

Question: Which IC50 does the source give for `O=C(c1cc(Cl)ccc1Cl)N1CCC(O)(Cn2cnc3c(cnn3-c3ccccc3)c2=O)CC1` [Compound I-223] here?
Answer: 200 to 1000 nM

Question: `O=C(C1CC1)N1CCC(O)(Cn2cnc3c(cnn3-c3ccc(-c4ccc(OC5CCNC5)cc4)cc3)c2=O)CC1` (stereo not drawn) [Compound I-675] was tested. Which IC50 did it give?
Answer: 200 to 1000 nM
